Key:
[1] = Determination of the pKa of the cationic lipid in lipid nanoparticles by TNS fluorescence; format: physicochemical; conditions: probe 2-(p-toluidine)-6-naphthalenesulfonic acid (TNS), 1 uM final, cationic lipid in LNP (cationic lipid/DSPC/cholesterol/PEG lipid 50/10/38/2 mol %), pH of half-maximal fluorescence
Protocol: (§1) Cationic lipids, DSPC, cholesterol, and PEG-lipids were dissolved in ethanol in molar ratios of 50:10:38:2 or 48:10:40:2. Lipid nanoparticles (LNPs) were prepared in a ratio of total lipid to mRNA by weight of about 10:1 to 30:1. Briefly, mRNA was diluted to 0.15 mg/ml in 10 to 50 ml of citrate buffer (pH=4). Using a syringe pump, an ethanolic solution of lipids was mixed with an aqueous mRNA solution in a ratio of approximately 1:5 to 1:3 by volume at a total flow rate of over 10 ml/min. Ethanol was then removed and the external buffer was replaced by dialysis-class PBS. Finally, the lipid nanoparticles were filtered through a sterile filter with a pore size of 0.2 um. The particle size of the lipid nanoparticles was approximately 65-105 nm in diameter and, in some cases, approximately 75-100 nm in diameter, determined by quasi-elastic light scattering using Malvern Zetasizer Nano ZS.
The pKa of the formulated cationic lipid correlates with the effectiveness of the LNP for nucleic acid delivery. The preferred pKa range is from 5 to 7. The pKa of each cationic lipid was determined in lipid nanoparticles using an analysis based on the fluorescence of 2-(p-toluidine)-6-naphthalenesulfonic acid (TNS). Lipid nanoparticles containing cationic lipids/DSPC/cholesterol/PEG lipids (50/10/38/2 mol %) at a concentration of 0.4 mM total lipid in PBS were prepared using an ordered method as described in Example 10. TNS was prepared as a 100 μM stock solution in distilled water. The vesicles were diluted to contain 24 uM lipid in a 2 mL buffer solution containing 10 mM HEPES, 10 mM MES, 10 mM acetic acid, and 130 mM NaCl, pH 2.5-11. Aliquots of 100 μM TNS stock solution were added to bring the final concentration to 1 uM. After vortex mixing, fluorescence intensity was measured in an SLM Aminco Series 2 luminescence spectrophotometer at room temperature using excitation and emission wavelengths of 321 nm and 445 nm. Fluorescence data were analyzed using a s-shaped curve fitting and pKa was determined by measuring the pH that produced half-maximal fluorescence intensity.

[2] = tested on: luciferase expression in the liver; experiment: In vivo luciferase mRNA expression in liver after tail vein injection of FLuc mRNA lipid nanoparticles; design: species or system mice; conditions: liver 5 hours after administration, LNP 50% cationic lipid/10% DSPC/38% cholesterol/2% PEG-DMG; for Liver Luc @ 0.3 mg/kg dose: 0.3 mg mRNA/kg; for Liver Luc @ 1.0 mg/kg dose: 1.0 mg mRNA/kg
Protocol: as §1
According to the guidelines set by the State Scientific and Technological Commission of The People's Republic of China, female C57BL/6 mice aged 6-8 weeks and CD-1 mice aged 8-10 weeks were used to perform the study. Various doses of mRNA lipid nanoparticles were administered by intravenous injection and the animals were euthanized at specific time points (e.g., 5 hours) post-administration. The liver and spleen were collected, weighed, immediately frozen in liquid nitrogen, and stored at −80° C. until being used for analysis.
For the liver, approximately 50 mg of liver tissue was cut and placed in 2 mL FastPrep tubes (MP Biomedicals, Solon OH) for analysis. ¼″ ceramic beads (MP Biomedicals) and 500 μL of room temperature Glo Lysis Buffer-GLB (Promega, Madison WI) were then added to each tube. The liver tissue was then homogenized for 15 seconds at a speed of 2×6.0 m/s using a FastPrep24 instrument (MP Biomedicals). The homogenates were incubated at room temperature for 5 minutes, then diluted with GLB in a ratio of 1:4, and finally evaluated using the SteadyGlo luciferase assay system (Promega). Specifically, 50 μL of diluted tissue homogenate was mixed with 50 μL of SteadyGlo substrate. The mixture was shaken for 10 seconds, then incubated at room temperature for 5 minutes, and subsequently quantified using a SpectraMAX_L chemiluminescent plate reader (Meigu Molecular Instrument (Shanghai) Co., Ltd.). The amount of protein was measured by using the BCA Protein Quantitation Kit (Shanghai Colorless Medical Technology Co., Ltd.). Relative luminescence units (RLU) were normalized to the total ug of the measured protein. To convert RLU into μg luciferase, a standard curve was generated using QuantiLum recombinant luciferase (Promega).
FLuc mRNA (L-6107) from Trilink Biotechnologies, which was originally isolated from fireflies (Photinus pyralis), will express luciferase protein. Fluc is commonly used in mammalian cell cultures to measure gene expression and cell viability. It emits biological light in the presence of the substrate luciferin. This capped and polyadenylated mRNA was completely replaced by 5-methylcytidine and pseudouridine.
For comparison purposes, these lipids were also used to formulate lipid nanoparticles containing FLuc mRNA (L-6107) using an ordered mixing method, as described in Example 10. Lipid nanoparticles were formulated with the following molar ratio: 50% cationic lipid/10% distearylphosphatidylcholine (DSPC)/38% cholesterol/2% PEG lipid (“PEG-DMG”, i.e., (1-(monomethoxy-polyethylene glycol)-2,3-dimyristoylglycerol, average PEG molecular weight 2000). As described in Example 10, relative activity was determined by measuring luciferase expression in the liver 5 hours after administration via tail vein injection. The activity was compared at doses of 0.3 and 1.0 mg mRNA/kg and expressed as ng luciferase/g liver measured 5 hours after administration as described in Example 10.

| Compound | pKa [1] | Liver Luc @ 0.3 mg/kg dose [2] [ng luciferase/g liver] | Liver Luc @ 1.0 mg/kg dose [2] [ng luciferase/g liver] |
| --- | --- | --- | --- |
| CCCCCCCCC(CCCCCC)C(=O)OCCCCCCN(CCCCO)CCCCCCOC(=O)C(CCC)(CCCCCC)CCCCCCCC (stereo not drawn) [Compound 3] | 6.22 | 961 ± 469 | 6917 ± 642 |
| CCCCCCCCC(CCCCCC)C(=O)OCCCCCCN(CCCCO)CCCCCCOC(=O)C(C)(CCCCCC)CCCCCCCC (stereo not drawn) [Compound 1] | 6.25 | 1424 ± 265 | 10318 ± 1304 |
| CCCCCCCCC(C)(CCCCCC)C(=O)OCCCCCCN(CCCCO)CCCCCCOC(=O)C(CC)(CCCCCC)CCCCCCCC (stereo not drawn) [Compound 5] | 5.89 | 1424 ± 289 | 10372 ± 2096 |
| CCCCCCCCC(C)(CCCCCC)C(=O)OCCCCCCN(CCCCO)CCCCCCOC(=O)C(C)(CCCCCC)CCCCCCCC (stereo not drawn) [Compound 4] | 6.12 | 1179 ± 362 | 8630 ± 824 |
| CCCCCCCCC(CCCCCC)C(=O)OCCCCCCN(CCCCO)CCCCCCOC(=O)C(CC)(CCCCCC)CCCCCCCC (stereo not drawn) [Compound 2] | 5.91 | 1469 ± 294 | 10671 ± 1912 |
| CCCCCCCCC(C)(CCCCCC)C(=O)OCCCCCCN(CCCCO)CCCCCCOC(=O)C(CCC)(CCCCCC)CCCCCCCC (stereo not drawn) [Compound 6] | 6.13 | 1628 ± 432 | 11753 ± 2598 |

Continued, in another order:

| pKa [1] | Compound | Liver Luc @ 0.3 mg/kg dose [2] [ng luciferase/g liver] | Liver Luc @ 1.0 mg/kg dose [2] [ng luciferase/g liver] |
| --- | --- | --- | --- |
| 5.98 | CCCCCCCCC(CC)(CCCCCC)C(=O)OCCCCCCN(CCCCO)CCCCCCOC(=O)C(CCC)(CCCCCC)CCCCCCCC (stereo not drawn) [Compound 8] | 985 ± 625 | 7188 ± 942 |
| 6.08 | CCCCCCCCC(CC)(CCCCCC)C(=O)OCCCCCCN(CCCCO)CCCCCCOC(=O)C(CC)(CCCCCC)CCCCCCCC (stereo not drawn) [Compound 7] | 1218 ± 359 | 8914 ± 1487 |
| 6.05 | CCCCCCCCC(CCC)(CCCCCC)C(=O)OCCCCCCN(CCCCO)CCCCCCOC(=O)C(CCC)(CCCCCC)CCCCCCCC (stereo not drawn) [Compound 9] | 1138 ± 265 | 8443 ± 1045 |

Reference: patent US12697376B2, “Cationic lipid compounds” (Guangzhou Anobri Pharmaceutical Co. Ltd., priority 2021, dated 2026)
